{
  "source": "paper PMC9387934",
  "about": "“Randomized single oral dose phase 1 study of safety, tolerability, and pharmacokinetics of Iminosugar UV-4 Hydrochloride (UV-4B) in healthy subjects” (PLoS Neglected Tropical Diseases, 2022)",
  "key": {"[1]": {"assay": "Phase 1a single ascending dose study: UV-4 in pooled urine, urinary recovery and renal clearance", "assay_type": "in vivo, human", "conditions": "urine; for Cumulative Amount Ae(0-last): corresponds to Ae(0-48); for Cumulative Percent fe(0-last): corresponds to fe(0-48)", "protocol": "Serial blood samples were collected at pre-dose (0 hour) and 0.5, 1, 1.5, 2, 2.5, 3, 4, 6, 9, 12, 18, 24, 36, and 48 hours post-dose for assessment of UV-4 concentrations in plasma. Pooled urine samples were collected at pre-dose (-12 to 0 hour) and from 0 to 6, 6 to 12, 12 to 24, and 24 to 48 hours post-dose for assessment of UV-4 concentrations in urine. Plasma and urine concentrations of UV-4 were determined by means of validated, sensitive, and specific high-performance liquid chromatography/tandem mass spectrometric (LC-MS/MS) assays. UV-4 plasma and urine concentrations and PK parameters were listed and summarized by dose, as appropriate. Only the 48 subjects who received active investigational product were included in the PK analysis population.\n8.2.3 Specimen Preparation, Handling, and Shipping\n8.2.3.1 Instructions for Specimen Preparation, Handling, and Storage\nThe collected PK blood samples (2 mL) will be placed on ice after blood draw, and within 1 hour centrifuged at room temperature at approximately 3000 revolutions per minute for 15 minutes. Plasma will then be harvested and split into 4 aliquots of approximately 250 μ L and stored frozen at -20°C until shipped.\nUrine samples (approximately 10 mL) for determination of UV-4 concentrations in urine will be taken from the total volume provided during each collection period. The total volume of each urine collection will be recorded along with the start/stop time for each urine collection interval.\nAnalysis of plasma and urine for UV-4 will be performed by the qualified bioanalytical laboratory, Quintiles Bioservices, Inc., Ithaca, New York 14950. Instructions for the proper preparation, handling, storage and shipping of specimens will be provided separately in a study-specific laboratory manual (i.e., Biopacket).\n8.2.3.2 Specimen Shipment […]\nThe following single-dose urine PK parameters will be estimated from the UV-4 urine concentration-time data collected, as appropriate:\nAe Amount of UV-4 excreted in urine unchanged, calculated for each collection interval and cumulatively across intervals fe Fraction of UV-4 excreted in urine unchanged, calculated for each collection interval and cumulatively across intervals […]\nAdditional UV-4 PK parameters may be calculated at the discretion of the […]\nPlasma concentrations and plasma and urine PK parameters will be summarized by treatment using descriptive statistics, as appropriate. Figures for the arithmetic mean (and SD) concentration-time data will be presented for all doses on both a linear and semi-logarithmic scale. Individual concentration-time data will be graphically presented on linear and semi-logarithmic scales. Scatter plots of individual and geometric mean PK parameters versus dose will be presented. Additional graphical presentations of PK data may be added at the discretion of the PK analyst.\nDose proportionality of Cmax, AUC(0-last), and AUC(0-inf) will be assessed graphically and statistically using the power model approach with the logarithm of PK parameters AUC(0-inf) and Cmax as the dependent variables and the logarithm of the dose as the independent variable: ([AUC(0-inf), AUC(0-last), or Cmax]=α *doseβ).\n11.4.7 Deviation from Original Analysis Plan\nDeviations from the formal statistical analysis plan will be noted in the final Clinical Study"}, "[2]": {"design": "method as in Investigator’s Brochure (IB)", "conditions": "dogs, ref Investigator’s Brochure (IB), cited from earlier work"}, "[3]": {"conditions": "Cohort 6, 360 mg single oral dose, Median"}, "[4]": {"conditions": "Cohort 7, 720 mg single oral dose, Ar Mean"}, "[5]": {"conditions": "Cohort 7, 720 mg single oral dose, Median"}, "[6]": {"conditions": "Cohort 8, 1000 mg single oral dose, Ar Mean"}, "[7]": {"conditions": "Cohort 8, 1000 mg single oral dose, Median"}},
  "note": "Counter-ions that a name gives are not always drawn.",
  "data": [
    {"smiles": "COCCCCCCCCCN1C[C@H](O)[C@@H](O)[C@H](O)[C@H]1CO", "note": "[UV-4B, N-(9’-methoxynonyl)-1-deoxynojirimycin hydrochloride]", "values": [
      {"measurement": "By-Interval Amount Ae(24-48)", "setting": "[1]; [3]", "result": 2.89, "unit": "mg"},
      {"measurement": "By-Interval Percent fe(0-6)", "setting": "[1]; [3]", "result": 42.4, "unit": "%"},
      {"measurement": "By-Interval Percent fe(6-12)", "setting": "[1]; [3]", "result": 5.55, "unit": "%"},
      {"measurement": "By-Interval Percent fe(12-24)", "setting": "[1]; [3]", "result": 1.87, "unit": "%"},
      {"measurement": "By-Interval Percent fe(24-48)", "setting": "[1]; [3]", "result": 0.803, "unit": "%"},
      {"measurement": "Cumulative Amount Ae(0-12)", "setting": "[1]; [3]", "result": 172, "unit": "mg"},
      {"measurement": "Cumulative Amount Ae(0-24)", "setting": "[1]; [3]", "result": 178, "unit": "mg"},
      {"measurement": "Cumulative Percent fe(0-12)", "setting": "[1]; [3]", "result": 47.8, "unit": "%"},
      {"measurement": "Cumulative Percent fe(0-24)", "setting": "[1]; [3]", "result": 49.5, "unit": "%"},
      {"measurement": "Cumulative Amount Ae(0-last)", "setting": "[1]; [3]", "result": 182, "unit": "mg"},
      {"measurement": "Cumulative Percent fe(0-last)", "setting": "[1]; [3]", "result": 50.4, "unit": "%"},
      {"measurement": "By-Interval Amount Ae(0-6)", "setting": "[1]; [4]", "result": 301, "unit": "mg"},
      {"measurement": "By-Interval Amount Ae(6-12)", "setting": "[1]; [4]", "result": 42.5, "unit": "mg"},
      {"measurement": "By-Interval Amount Ae(12-24)", "setting": "[1]; [4]", "result": 11.7, "unit": "mg"},
      {"measurement": "By-Interval Amount Ae(24-48)", "setting": "[1]; [4]", "result": 4.09, "unit": "mg"},
      {"measurement": "By-Interval Percent fe(0-6)", "setting": "[1]; [4]", "result": 41.8, "unit": "%"},
      {"measurement": "By-Interval Percent fe(6-12)", "setting": "[1]; [4]", "result": 5.90, "unit": "%"},
      {"measurement": "By-Interval Percent fe(12-24)", "setting": "[1]; [4]", "result": 1.63, "unit": "%"},
      {"measurement": "By-Interval Percent fe(24-48)", "setting": "[1]; [4]", "result": 0.569, "unit": "%"},
      {"measurement": "Cumulative Amount Ae(0-12)", "setting": "[1]; [4]", "result": 344, "unit": "mg"},
      {"measurement": "Cumulative Amount Ae(0-24)", "setting": "[1]; [4]", "result": 355, "unit": "mg"},
      {"measurement": "Cumulative Percent fe(0-12)", "setting": "[1]; [4]", "result": 47.7, "unit": "%"},
      {"measurement": "Cumulative Percent fe(0-24)", "setting": "[1]; [4]", "result": 49.4, "unit": "%"},
      {"measurement": "Cumulative Amount Ae(0-last)", "setting": "[1]; [4]", "result": 360, "unit": "mg"},
      {"measurement": "Cumulative Percent fe(0-last)", "setting": "[1]; [4]", "result": 49.9, "unit": "%"},
      {"measurement": "By-Interval Amount Ae(0-6)", "setting": "[1]; [5]", "result": 285, "unit": "mg"},
      {"measurement": "By-Interval Amount Ae(6-12)", "setting": "[1]; [5]", "result": 45.7, "unit": "mg"},
      {"measurement": "By-Interval Amount Ae(12-24)", "setting": "[1]; [5]", "result": 12.1, "unit": "mg"},
      {"measurement": "By-Interval Amount Ae(24-48)", "setting": "[1]; [5]", "result": 4.53, "unit": "mg"},
      {"measurement": "By-Interval Percent fe(0-6)", "setting": "[1]; [5]", "result": 39.6, "unit": "%"},
      {"measurement": "By-Interval Percent fe(6-12)", "setting": "[1]; [5]", "result": 6.34, "unit": "%"},
      {"measurement": "By-Interval Percent fe(12-24)", "setting": "[1]; [5]", "result": 1.68, "unit": "%"},
      {"measurement": "By-Interval Percent fe(24-48)", "setting": "[1]; [5]", "result": 0.630, "unit": "%"},
      {"measurement": "Cumulative Amount Ae(0-12)", "setting": "[1]; [5]", "result": 332, "unit": "mg"},
      {"measurement": "Cumulative Amount Ae(0-24)", "setting": "[1]; [5]", "result": 345, "unit": "mg"},
      {"measurement": "Cumulative Percent fe(0-12)", "setting": "[1]; [5]", "result": 46.1, "unit": "%"},
      {"measurement": "Cumulative Percent fe(0-24)", "setting": "[1]; [5]", "result": 47.9, "unit": "%"},
      {"measurement": "Cumulative Amount Ae(0-last)", "setting": "[1]; [5]", "result": 350, "unit": "mg"},
      {"measurement": "Cumulative Percent fe(0-last)", "setting": "[1]; [5]", "result": 48.5, "unit": "%"},
      {"measurement": "By-Interval Amount Ae(0-6)", "setting": "[1]; [6]", "result": 428, "unit": "mg"},
      {"measurement": "By-Interval Amount Ae(6-12)", "setting": "[1]; [6]", "result": 53.7, "unit": "mg"},
      {"measurement": "By-Interval Amount Ae(12-24)", "setting": "[1]; [6]", "result": 16.4, "unit": "mg"},
      {"measurement": "By-Interval Amount Ae(24-48)", "setting": "[1]; [6]", "result": 5.21, "unit": "mg"},
      {"measurement": "By-Interval Percent fe(12-24)", "setting": "[1]; [6]", "result": 1.64, "unit": "%"},
      {"measurement": "Cumulative Amount Ae(0-12)", "setting": "[1]; [6]", "result": 482, "unit": "mg"},
      {"measurement": "Cumulative Amount Ae(0-24)", "setting": "[1]; [6]", "result": 498, "unit": "mg"},
      {"measurement": "Cumulative Amount Ae(0-last)", "setting": "[1]; [6]", "result": 504, "unit": "mg"},
      {"measurement": "By-Interval Amount Ae(0-6)", "setting": "[1]; [7]", "result": 421, "unit": "mg"},
      {"measurement": "By-Interval Amount Ae(6-12)", "setting": "[1]; [7]", "result": 56.1, "unit": "mg"},
      {"measurement": "By-Interval Amount Ae(12-24)", "setting": "[1]; [7]", "result": 16.6, "unit": "mg"},
      {"measurement": "By-Interval Amount Ae(24-48)", "setting": "[1]; [7]", "result": 5.03, "unit": "mg"},
      {"measurement": "Cumulative Amount Ae(0-12)", "setting": "[1]; [7]", "result": 475, "unit": "mg"},
      {"measurement": "Cumulative Amount Ae(0-24)", "setting": "[1]; [7]", "result": 496, "unit": "mg"},
      {"measurement": "Cumulative Amount Ae(0-last)", "setting": "[1]; [7]", "result": 501, "unit": "mg"},
      {"measurement": "Finding at the highest dose", "setting": "[2]; 150 mg/kg/dose TID for seven days", "result": "severe GI effects"},
      {"measurement": "Finding at 10 mg/kg/dose TID", "setting": "[2]; 10 mg/kg", "result": "diarrhea was still apparent"}
    ]}
  ]
}
